Results from article PMC8456958, “Selective Bacterial Targeting and Infection‐Triggered Release of Antibiotic Colistin Conjugates” (Angewandte Chemie (International Ed. in English), 2021).

Experiments:
[1] = system: neutrophil granulocytes (PMN); test: Release of neutrophil elastase from neutrophil granulocytes (ELISA); assay type: cell-based, human; conditions: stimulation with 0.1 μM fMLP
Protocol: Figure 5 Cellular proof of concept for triggered antibiotic release from 6. a) Release of neutrophil elastase (NE) from neutrophil granulocytes. PMN were isolated and suspended in RPMI 1640. For activation, 0.1 μM fMLP was added. The samples were incubated for 1 h at 37 °C, centrifuged to remove cells, and the NE concentration was determined in the supernatant by ELISA. Values normalized to 1×10^6 cells mL^−1. Data are presented as the mean of 4 separate experiments. *p<0.03 compared to unactivated. b) Activity of NE after co‐cultivation of PMN with E. coli K12 in presence of 1 or 6. 5×10^5 cells mL^−1 of PMN were co‐cultivated with 8×10^6 cells mL^−1 of E. coli K12 (ratio of bacteria : PMN 16:1) for 1 h at 37 °C in RPMI 1640/HEPES‐NaCl 1:1. Data are presented as the mean of two separate experiments. c) Release of colistin from 6. […] After 1 h colistin concentrations were determined by HPLC–MS. […]
50 µl of the diluted detection antibody (diluted with Reagent Diluent) with a final concentration of 250 ng/ml were added and incubated for 1.5 h at 37 °C. […] The absorbance was measured at 450 nm together with a correction wavelength of 570 nm, the value of which was subtracted.
Calculation of results: All samples and standards were measured in duplicate. […]

[2] = system: human neutrophil granulocytes (PMN); test: Activation of human neutrophil granulocytes (CD66b, flow cytometry); assay type: cell-based; conditions: 0.1 μM fMLP, 1 h at 37 °C with shaking, FITC-labeled anti CD66b antibody; three independent experiments
Protocol: HPLC-MS measurements were carried out in triplicate. Data from MRM measurements were analyzed with Skyline (vers. 18.3, MacCoss Laboratory, University of Washington).
Isolation of Neutrophil Granulocytes from human blood
The MACSxpress Neutrophil Isolation Kit, human from Miltenyi Biotec (Bergisch-Gladbach, Germany) was employed. Fresh venous EDTA blood was processed within 1 h. 65 mg of the MACSxpress whole blood isolation cocktail (lyophilized powder) were mixed with 1 ml of buffer A (from the kit). Then 1 ml of buffer B (from the kit) was added, and the well-mixed cocktail was added to 4 ml of peripheral whole blood in a 15 ml tube. The mixture was gently inverted 3 times and mixed on a tube rotator at 50 rpm for 5 min at rt. The tube was placed, without cap, for 20 min into a strong magnetic field (neodymium magnets). The suspension containing the PMN was collected into a fresh 15 ml tube by careful pipetting. […]
All steps were carried out with cooled media (4 °C) and the vials were kept on ice. Freshly isolated neutrophil granulocytes in RPMI 1640 were counted, followed by centrifugation at 200 x g for 10 min at 4 °C. […]
50 µl of the diluted detection antibody (diluted with Reagent Diluent) with a final concentration of 250 ng/ml were added and incubated for 1.5 h at 37 °C. […] The absorbance was measured at 450 nm […]

N-Formyl-Met-Leu-Phe [fMLP, formyl‐methionyl‐leucyl‐phenylalanine]
amount of elastase released by neutrophil granulocytes ([1]; RPMI 1640, 1 h, 37 °C, supernatant, ELISA, normalized to 1×10^6 cells mL^−1, mean of 4 experiments, basal 39): 84 ng/mL
amount of elastase released, as activity ([1]; converted from ELISA amount, basal 2.5): 5.5 mU mL^−1
increase of the activation state marker CD66b [2]: 2.5 fold
